# Biological target: human PSMA (Homo sapiens (Human), UniProt Q04609)
# Test: Enzymatic assay for in vitro evaluation of PSMA inhibitors (fluorescent assay of PSMA activity, NAAG substrate, OPA detection of glutamate)
# Format: biochemical
# Chain of human PSMA (Q04609 whole entry): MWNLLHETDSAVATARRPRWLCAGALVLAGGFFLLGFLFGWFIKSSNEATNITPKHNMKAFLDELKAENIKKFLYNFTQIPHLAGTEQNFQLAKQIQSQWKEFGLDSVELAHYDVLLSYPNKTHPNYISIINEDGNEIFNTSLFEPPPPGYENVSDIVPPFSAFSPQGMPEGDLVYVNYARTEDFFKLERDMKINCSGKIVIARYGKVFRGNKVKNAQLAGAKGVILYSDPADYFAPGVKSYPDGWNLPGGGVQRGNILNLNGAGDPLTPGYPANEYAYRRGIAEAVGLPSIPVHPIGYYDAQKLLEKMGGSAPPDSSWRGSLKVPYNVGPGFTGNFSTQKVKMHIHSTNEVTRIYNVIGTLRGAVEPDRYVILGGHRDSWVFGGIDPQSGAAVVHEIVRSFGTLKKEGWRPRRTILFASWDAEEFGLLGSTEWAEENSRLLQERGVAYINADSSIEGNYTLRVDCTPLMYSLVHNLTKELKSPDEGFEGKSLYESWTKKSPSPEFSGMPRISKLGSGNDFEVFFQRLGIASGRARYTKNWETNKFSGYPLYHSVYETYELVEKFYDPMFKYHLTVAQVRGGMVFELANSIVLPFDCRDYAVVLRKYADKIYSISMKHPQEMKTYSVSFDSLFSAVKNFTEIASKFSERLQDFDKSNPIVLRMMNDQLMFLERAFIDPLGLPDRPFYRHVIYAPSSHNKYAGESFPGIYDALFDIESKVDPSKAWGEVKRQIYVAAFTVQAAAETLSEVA
smiles,measurement,value
"O=C(O)CC[C@H](NC(=O)N[C@@H](CCCCNc1cc(NCCOCCn2cc(CCCF)nn2)ncn1)C(=O)O)C(=O)O [P271, (S)-2-(3-((S)-1-Carboxy-5-((6-((2-(2-(4-(3-fluoropropyl)-1H-1,2,3-triazol-1-yl)ethoxy)ethyl)amino)pyrimidin-4-yl)amino)pentyl)ureido)pentanedioic Acid]",Ki,0.8 nM
same,PSMA Blkg % (1.0 μM),98%
"O=C(O)CC[C@H](NC(=O)N[C@@H](CC1CCN(C(=O)c2cc(C(=O)N3CCC(C[C@H](NC(=O)N[C@@H](CCC(=O)O)C(=O)O)C(=O)O)CC3)cc(-n3cc(CCCF)nn3)c2)CC1)C(=O)O)C(=O)O [P272, (S)-2-(3-((S)-1-Carboxy-2-(1-(3-(4-((S)-2-carboxy-2-(3-((S)-1,3-dicarboxypropyl)-ureido)ethyl)piperidine-1-carbonyl)-5-(4-(3-fluoropropyl)-1H-1,2,3-triazol-1-yl)benzoyl)piperidin-4-yl)ethyl)ureido)pentanedioic Acid]",Ki,2.5 nM
same,PSMA Blkg % (1.0 μM),97%
"O=C(O)CC[C@H](NC(=O)NC(CCCCNc1nc(NCCN(CCNC(=O)Cn2cc(CCCF)nn2)CCNc2ccc([N+](=O)[O-])c(NCCCCC(NC(=O)N[C@@H](CCC(=O)O)C(=O)O)C(=O)O)n2)ccc1[N+](=O)[O-])C(=O)O)C(=O)O (stereo partly drawn) [P273, (2S,2′S)-2,2′-(((((1S,1′S)-((6,6′-((((2-(2-(4-(3-Fluoropropyl)-1H-1,2,3-triazol-1-yl)acetamido)ethyl)azanediyl)bis(ethane-2,1-diyl))bis(azanediyl))bis(3-nitropyridine-6,2-diyl))bis(azanediyl))bis(1-carboxypentane-5,1-diyl))bis(azanediyl))bis(carbonyl))bis(azanediyl))dipentanedioic Acid]",Ki,0.2 nM
same,PSMA Blkg % (1.0 μM),97%
"O=C(O)CC[C@H](NC(=O)N[C@@H](CCCCNC(=O)CC(CC(=O)NCCCC[C@H](NC(=O)N[C@@H](CCC(=O)O)C(=O)O)C(=O)O)NC(=O)Cn1cc(CCCF)nn1)C(=O)O)C(=O)O [P276, (3S,7S,23S,27S)-15-(2-(4-(3-Fluoropropyl)-1H-1,2,3-triazol-1-yl)acetamido)-5,13,17,25-tetraoxo-4,6,12,18,24,26-hexaazanonacosane-1,3,7,23,27,29-hexacarboxylic Acid]",Ki,1.3 nM
"O=C(O)CC[C@H](NC(=O)N[C@@H](CCc1nc(-c2ccc([N+](=O)[O-])cc2)co1)C(=O)O)C(=O)O [P279, (S)-2-(3-((S)-1-Carboxy-3-(4-(4-nitrophenyl)oxazol-2-yl)propyl)ureido)pentanedioic Acid]",Ki,1.6 nM
"O=C(O)CC[C@H](NC(=O)N[C@@H](Cc1ccc(NC(=O)CCC(CCC(=O)Nc2ccc(C[C@H](NC(=O)N[C@@H](CCC(=O)O)C(=O)O)C(=O)O)cc2)NC(=O)c2ccc(-n3cc(CCCF)nn3)cc2)cc1)C(=O)O)C(=O)O [P280, (2S,2′S)-2,2′(((((1S,1′S)(((4-(4-(4-(3-Fluoropropyl)-1H-1,2,3-triazol-1-yl)-benzamido)-heptanedioyl)-bis(azanediyl))-bis(4,1-phenylene))-bis(1-carboxyethane-2,1-diyl))-bis(azanediyl))-bis(carbonyl))-bis(azanediyl))-dipentanedioic Acid]",Ki,0.9 nM
"O=C(O)CC[C@H](NC(=O)N[C@@H](CCCCNC(=O)CCC(CCC(=O)NCCCC[C@H](NC(=O)N[C@@H](CCC(=O)O)C(=O)O)C(=O)O)NC(=O)c1ccc(-n2cc(CCCF)nn2)cc1)C(=O)O)C(=O)O [P282, (3S,7S,25S,29S)-16-(4-(4-(3-Fluoropropyl)-1H-1,2,3-triazol-1-yl)benzamido)-5,13,19,27-tetraoxo-4,6,12,20,26,28-hexaazahentriacontane-1,3,7,25,29,31-hexacarboxylic Acid]",Ki,1.1 nM

# Source: US10894807B2 (Siemens Medical Solutions USA, Inc., priority 2011, dated 2021)
